Results taken from patent US20230303570A1, “KINASE INHIBITORS AND USES THEREOF” (ABM Therapeutics Corporation, priority 2020, published 2023).

How the values were obtained:
Format in all cases: biochemical
HPK1 (MAP4K1) = HPK1 (MAP4K1) (Homo sapiens, UniProt Q92918); experiment: HPK1 (MAP4K1) kinase Lantha screen assay
Outline: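 Recombinant MAP4K1 preincubated 10 min with compound (6-point dilution, duplicates) in 50 mM HEPES pH 7.5, 10 mM MgCl2, then reacted with Fluorescein-PKC substrate and ATP for 90 min at room temperature. Antibody detection solution stopped reaction; after 60 min, TR-FRET read at ex 340 nm, em 520/495 nm.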

Axl = target: T1, Axl (Homo sapiens, UniProt P30530); experiment: AXL kinase mobility shift assay
T1 sequence (P30530 26-894): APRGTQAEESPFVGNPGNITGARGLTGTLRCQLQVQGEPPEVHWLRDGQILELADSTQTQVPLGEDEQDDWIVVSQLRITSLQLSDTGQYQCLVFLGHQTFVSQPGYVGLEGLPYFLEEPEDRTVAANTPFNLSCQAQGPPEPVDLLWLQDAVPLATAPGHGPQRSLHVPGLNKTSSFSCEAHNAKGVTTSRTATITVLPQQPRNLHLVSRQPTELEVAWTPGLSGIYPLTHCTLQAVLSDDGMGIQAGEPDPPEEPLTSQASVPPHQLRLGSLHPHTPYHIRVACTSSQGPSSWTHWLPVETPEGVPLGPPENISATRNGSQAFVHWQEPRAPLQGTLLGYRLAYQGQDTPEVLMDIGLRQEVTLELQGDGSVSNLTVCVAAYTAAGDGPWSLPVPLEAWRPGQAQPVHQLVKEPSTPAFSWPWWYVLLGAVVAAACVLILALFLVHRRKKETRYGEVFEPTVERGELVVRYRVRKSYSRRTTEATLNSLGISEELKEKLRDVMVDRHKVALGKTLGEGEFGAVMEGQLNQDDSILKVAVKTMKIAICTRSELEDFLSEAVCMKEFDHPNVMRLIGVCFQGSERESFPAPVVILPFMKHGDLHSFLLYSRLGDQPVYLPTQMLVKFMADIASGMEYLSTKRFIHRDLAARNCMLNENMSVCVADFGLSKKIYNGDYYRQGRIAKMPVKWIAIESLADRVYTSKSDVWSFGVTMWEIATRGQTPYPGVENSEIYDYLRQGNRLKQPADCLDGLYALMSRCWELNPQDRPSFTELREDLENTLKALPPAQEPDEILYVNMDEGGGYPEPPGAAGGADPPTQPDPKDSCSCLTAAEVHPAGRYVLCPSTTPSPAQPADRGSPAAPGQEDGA
Procedure: (§1) The effect of the compounds on the activity of cKit, RET and AXL kinases were assessed by Mobility shift assay. • 1. 1× kinase base buffer and stop buffer for testing kinases were prepared • 1-1) 1× Kinase base buffer (50 mM HEPES, pH 7.5, 0.01% Triton X-100) • 1-2) Stop buffer (100 mM HEPES, pH 7.5, 0.015% Brij-35, 0.2% Coating Reagent #3, 50 mM EDTA) • 2. Compound and assay plate preparation: the compound was diluted to 50× of the final desired highest inhibitor concentration in reaction by 100% DMSO. 100 μl of this compound dilution was transferred to a well in a 96-well plate. For example, if the highest desired concentration was 5 μM, then 250 μM of compound DMSO solution was prepared in this step. For all compounds, the compound was serially diluted by transferring 10 μl to 70 μl of 100 DMSO in the next well and so forth for a total of 5 concentrations. 100 μl of 100% DMSO was added to two empty wells for no compound control and no enzyme control in the same 96-well plate. The plate was labeled as source plate. The intermediate plate was prepared by transferring 10 μl of compound from source plate to a new 96-well plate as the intermediate plate, adding 90 μl of 1× kinase buffer to each well of the intermediate plate, mixing the compounds in intermediate plate for 10 min on shaker. 5 μl of each well from the 96-well intermediate plate were transferred to a 384-well plate in duplicates. For example, A1 of the 96-well plate was transferred to A1 and A2 of the 384-well plate. A2 of the 96-well plate was transferred to A3 and A4 of the 384-well plate, and so on. • 4. Kinase reaction: The assay plate already contained 5 μl of compound in 10% DMSO. A 2.5× enzyme solution was prepared by adding kinases (cKit, RET, or AXL) and DTT in 1× kinase base buffer. 2.5× enzyme solution was transferred to the assay plate (by adding 10 μl of 2.5× enzyme solution to each well of the 384-well assay plate). The plate was incubated at room temperature for 10 min. 2.5× peptide solution was prepared by adding FAM-labeled peptide, ATP, MgCl2 in the 1× kinase base buffer. 2.5× peptide solution was added to the assay plate by adding 10 μl of 2.5× peptide solution to each well of the 384-well assay plate. The plate was incubated at 28° C. for the specified period of time. 25 μl of stop buffer was added to stop reaction. Data was collected on Caliper.

c-Kit = c-Kit (Homo sapiens, UniProt P10721); experiment: cKit kinase mobility shift assay
Procedure: as §1

Sequence of HPK1 (MAP4K1) (Q92918 whole entry, species assumed): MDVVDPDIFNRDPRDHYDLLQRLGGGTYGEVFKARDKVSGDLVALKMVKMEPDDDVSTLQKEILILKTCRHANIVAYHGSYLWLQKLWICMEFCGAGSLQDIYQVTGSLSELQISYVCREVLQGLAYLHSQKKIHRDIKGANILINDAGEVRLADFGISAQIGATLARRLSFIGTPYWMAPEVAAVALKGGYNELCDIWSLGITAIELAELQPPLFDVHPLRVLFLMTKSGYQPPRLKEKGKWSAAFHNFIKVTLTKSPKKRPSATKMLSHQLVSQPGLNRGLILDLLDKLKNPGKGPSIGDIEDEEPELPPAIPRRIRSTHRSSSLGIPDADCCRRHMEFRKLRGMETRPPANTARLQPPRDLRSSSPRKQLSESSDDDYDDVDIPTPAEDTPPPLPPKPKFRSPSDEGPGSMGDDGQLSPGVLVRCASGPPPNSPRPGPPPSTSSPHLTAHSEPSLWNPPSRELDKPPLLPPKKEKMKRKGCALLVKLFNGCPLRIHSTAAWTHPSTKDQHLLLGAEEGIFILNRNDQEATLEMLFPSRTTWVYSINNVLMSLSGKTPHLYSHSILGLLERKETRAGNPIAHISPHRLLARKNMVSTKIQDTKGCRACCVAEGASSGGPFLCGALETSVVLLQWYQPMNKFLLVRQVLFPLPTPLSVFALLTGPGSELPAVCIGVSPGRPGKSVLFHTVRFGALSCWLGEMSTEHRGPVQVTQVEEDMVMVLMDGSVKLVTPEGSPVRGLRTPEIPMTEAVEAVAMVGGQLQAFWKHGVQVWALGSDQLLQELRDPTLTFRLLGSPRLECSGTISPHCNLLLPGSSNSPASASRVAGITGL
Sequence of c-Kit (P10721 26-976): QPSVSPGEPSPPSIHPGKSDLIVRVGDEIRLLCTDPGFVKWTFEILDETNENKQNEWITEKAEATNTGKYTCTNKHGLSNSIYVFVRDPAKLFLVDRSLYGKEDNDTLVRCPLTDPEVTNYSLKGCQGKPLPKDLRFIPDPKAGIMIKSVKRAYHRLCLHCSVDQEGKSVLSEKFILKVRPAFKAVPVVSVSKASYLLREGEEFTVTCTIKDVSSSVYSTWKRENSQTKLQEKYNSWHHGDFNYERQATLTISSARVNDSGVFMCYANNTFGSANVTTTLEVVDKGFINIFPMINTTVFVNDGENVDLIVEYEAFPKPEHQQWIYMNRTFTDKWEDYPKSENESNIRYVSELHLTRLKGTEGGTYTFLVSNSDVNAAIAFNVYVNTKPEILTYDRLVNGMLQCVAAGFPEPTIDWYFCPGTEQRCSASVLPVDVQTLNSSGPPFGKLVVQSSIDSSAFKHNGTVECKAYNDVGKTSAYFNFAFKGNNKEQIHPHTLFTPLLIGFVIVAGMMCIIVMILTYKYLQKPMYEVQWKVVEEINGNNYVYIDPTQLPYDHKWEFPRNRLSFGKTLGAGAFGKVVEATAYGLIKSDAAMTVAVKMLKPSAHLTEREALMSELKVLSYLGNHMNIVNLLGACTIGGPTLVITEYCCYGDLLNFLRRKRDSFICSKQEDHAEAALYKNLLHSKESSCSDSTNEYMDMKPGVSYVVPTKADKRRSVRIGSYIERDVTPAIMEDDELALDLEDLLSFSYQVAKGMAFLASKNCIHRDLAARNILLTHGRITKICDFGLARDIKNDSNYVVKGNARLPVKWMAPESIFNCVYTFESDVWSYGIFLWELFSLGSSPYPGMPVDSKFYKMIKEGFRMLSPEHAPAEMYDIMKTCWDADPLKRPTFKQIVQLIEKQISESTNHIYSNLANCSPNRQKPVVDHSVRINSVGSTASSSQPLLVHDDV

Compound | IC50 (HPK1 (MAP4K1)) [µM] | IC50 (Axl) [µM] | IC50 (c-Kit) [µM]
CNc1ncc2c(n1)N1CCN=C1C(c1c(C)ccc(NS(=O)(=O)c3c(Cl)cccc3Cl)c1F)=C2 [Compound 296, 2,6-dichloro-N-(2-fluoro-4-methyl-3-(2-(methylamino)-8,9-dihydroimidazo[1′,2′:1,6]pyrido[2,3-d]pyrimidin-6-yl)phenyl)benzenesulfonamide] | – | > 10 | –
CNc1ncc2c(n1)N1CCN=C1C(c1c(C)ccc(NS(=O)(=O)c3c(F)cccc3F)c1F)=C2 [Compound 297, 2,6-difluoro-N-(2-fluoro-4-methyl-3-(2-(methylamino)-8,9-dihydroimidazo[1′,2′:1,6]pyrido[2,3-d]pyrimidin-6-yl)phenyl)benzenesulfonamide] | – | > 10 | –
CNc1ncc2c(n1)N1CCN=C1C(c1c(C)ccc(NS(=O)(=O)c3ccccc3C(F)(F)F)c1F)=C2 [Compound 298, N-(2-fluoro-4-methyl-3-(2-(methylamino)-8,9-dihydroimidazo[1′,2′:1,6]pyrido[2,3-d]pyrimidin-6-yl)phenyl)-2-(trifluoromethyl)benzenesulfonamide] | – | > 10 | –
CNc1ncc2c(n1)N1CCN=C1C(c1c(C)ccc(NS(=O)(=O)c3ccccc3OC(F)(F)F)c1F)=C2 [Compound 299, N-(2-fluoro-4-methyl-3-(2-(methylamino)-8,9-dihydroimidazo[1′,2′:1,6]pyrido[2,3-d]pyrimidin-6-yl)phenyl)-2-(trifluoromethoxy)benzenesulfonamide] | – | > 10 | –
Cc1ccc(NS(=O)(=O)c2cc(F)ccc2F)c(F)c1C1=Cc2cnc(NC3COC3)nc2N2CCN=C12 [Compound 302, 2,5-difluoro-N-(2-fluoro-4-methyl-3-(2-(oxetan-3-ylamino)-8,9-dihydroimidazo[1′,2′:1,6]pyrido[2,3-d]pyrimidin-6-yl)phenyl)benzenesulfonamide] | – | > 10 | –
Cc1ccc(NS(=O)(=O)c2ccccc2Cl)c(F)c1C1=Cc2cnc(NC3COC3)nc2N2CCN=C12 [Compound 303, 2-chloro-N-(2-fluoro-4-methyl-3-(2-(oxetan-3-ylamino)-8,9-dihydroimidazo[1′,2′:1,6]pyrido[2,3-d]pyrimidin-6-yl)phenyl)benzenesulfonamide] | – | > 10 | –
CNc1ncc2c(n1)N1CCN=C1C(c1cc(NC(=O)Nc3cccc(C(F)(F)F)c3)c(F)cc1C)=C2 [Compound 330, 1-(2-fluoro-4-methyl-5-(2-(methylamino)-8,9-dihydroimidazo[1′,2′:1,6]pyrido[2,3-d]pyrimidin-6-yl)phenyl)-3-(3-(trifluoromethyl)phenyl)urea] | 0.1 to 10 | > 10 | < 0.1
CNc1ncc2c(n1)N1CCN=C1C(c1cc(NC(=O)Nc3cc(C(F)(F)F)ccc3F)c(F)cc1C)=C2 [Compound 333, 1-(2-fluoro-4-methyl-5-(2-(methylamino)-8,9-dihydroimidazo[1′,2′:1,6]pyrido[2,3-d]pyrimidin-6-yl)phenyl)-3-(2-fluoro-5-(trifluoromethyl)phenyl)urea] | – | > 10 | < 0.1
CNc1ncc2c(n1)N1CCN=C1C(c1cc(NC(=O)Nc3cc(C(F)(F)F)ccc3Cl)c(F)cc1C)=C2 [Compound 335, 1-(2-chloro-5-(trifluoromethyl)phenyl)-3-(2-fluoro-4-methyl-5-(2-(methylamino)-8,9-dihydroimidazo[1′,2′:1,6]pyrido[2,3-d]pyrimidin-6-yl)phenyl)urea] | – | > 10 | < 0.1
CNc1ncc2c(n1)N1CCN=C1C(c1c(C)ccc(NC(=O)Nc3ccccc3Cl)c1F)=C2 [Compound 336, 1-(2-chlorophenyl)-3-(2-fluoro-4-methyl-3-(2-(methylamino)-8,9-dihydroimidazo[1′,2′:1,6]pyrido[2,3-d]pyrimidin-6-yl)phenyl)urea] | – | > 10 | 0.1 to 10

Other lines, results leading:

IC50 (HPK1 (MAP4K1)) [µM] | IC50 (Axl) [µM] | IC50 (c-Kit) [µM] | Compound
0.1 to 10 | > 10 | – | CNc1ncc2c(n1)N1CCN=C1C(c1cc(NC(=O)c3cn(C(C)C)c(=O)n(-c4ccc(F)cc4)c3=O)ccc1C)=C2 [Compound 193, 3-(4-fluorophenyl)-1-isopropyl-N-(4-methyl-3-(2-(methylamino)-8,9-dihydroimidazo[1′,2′:1,6]pyrido[2,3-d]pyrimidin-6-yl)phenyl)-2,4-dioxo-1,2,3,4-tetrahydropyrimidine-5-carboxamide]
0.1 to 10 | > 10 | – | CNc1ncc2c(n1)N1CCN=C1C(c1ccc(C(=O)Nc3cc(C(F)(F)F)ccn3)cc1C)=C2 [Compound 276, 3-methyl-4-(2-(methylamino)-8,9-dihydroimidazo[1′,2′:1,6]pyrido[2,3-d]pyrimidin-6-yl)-N-(4-(trifluoromethyl)pyridin-2-yl)benzamide]
– | > 10 | > 10 | CNc1ncc2c(n1)N1CCN=C1C(c1cc(NS(=O)(=O)c3cccc(C(F)(F)F)c3)c(F)cc1C)=C2 [Compound 285, N-(2-fluoro-4-methyl-5-(2-(methylamino)-8,9-dihydroimidazo[1′,2′:1,6]pyrido[2,3-d]pyrimidin-6-yl)phenyl)-3-(trifluoromethyl)benzenesulfonamide]
– | < 0.1 | 0.1 to 10 | CNc1ncc2c(n1)N1CCN=C1C(c1c(C)ccc(NS(=O)(=O)c3ccccc3Cl)c1F)=C2 [Compound 287, 2-chloro-N-(2-fluoro-4-methyl-3-(2-(methylamino)-8,9-dihydroimidazo[1′,2′:1,6]pyrido[2,3-d]pyrimidin-6-yl)phenyl)benzenesulfonamide]
– | > 10 | > 10 | CNc1ncc2c(n1)N1CCN=C1C(c1cc(NS(=O)(=O)c3ccccc3F)ccc1C)=C2 [Compound 289, 2-fluoro-N-(4-methyl-3-(2-(methylamino)-8,9-dihydroimidazo[1′,2′:1,6]pyrido[2,3-d]pyrimidin-6-yl)phenyl)benzenesulfonamide]
– | > 10 | – | CNc1ncc2c(n1)N1CCN=C1C(c1cc(NS(=O)(=O)c3ccccn3)c(F)cc1C)=C2 [Compound 292, N-(2-fluoro-4-methyl-5-(2-(methylamino)-8,9-dihydroimidazo[1′,2′:1,6]pyrido[2,3-d]pyrimidin-6-yl)phenyl)pyridine-2-sulfonamide]
– | > 10 | – | CNc1ncc2c(n1)N1CCN=C1C(c1cc(NS(=O)(=O)Cc3ccccc3)c(F)cc1C)=C2 [Compound 293, N-(2-fluoro-4-methyl-5-(2-(methylamino)-8,9-dihydroimidazo[1′,2′:1,6]pyrido[2,3-d]pyrimidin-6-yl)phenyl)-1-phenylmethanesulfonamide]
– | 0.1 to 10 | – | CNc1ncc2c(n1)N1CCN=C1C(Oc1ccc(NC(=O)C3(C(=O)Nc4ccc(F)cc4)CC3)cc1)=C2 [Compound 345, N-(4-fluorophenyl)-N-(4-((2-(methylamino)-8,9-dihydroimidazo[1′,2′:1,6]pyrido[2,3-d]pyrimidin-6-yl)oxy)phenyl)cyclopropane-1,1-dicarboxamide]
